Laboratory results reported in patent US3985875A, “ω-(N-acylamino)alkylphosphoryl ethanolamines, pharmaceutical compositions containing them, and their uses” (Dainippon Pharmaceutical Co., Ltd., priority 1974, dated 1976).

Key:
Renin = target: T1, Renin (Homo sapiens, UniProt P00797); assay: Renin-inhibitory activity, Method I (inhibition of Angiotensin I formation, RIA); format: biochemical; conditions: Table 2; 37°C, 4 hours, 1.25 mg/ml; read-out: Rate of inhibiting the formation of Angiotensin I determined by Method I
T1 sequence (P00797 67-406): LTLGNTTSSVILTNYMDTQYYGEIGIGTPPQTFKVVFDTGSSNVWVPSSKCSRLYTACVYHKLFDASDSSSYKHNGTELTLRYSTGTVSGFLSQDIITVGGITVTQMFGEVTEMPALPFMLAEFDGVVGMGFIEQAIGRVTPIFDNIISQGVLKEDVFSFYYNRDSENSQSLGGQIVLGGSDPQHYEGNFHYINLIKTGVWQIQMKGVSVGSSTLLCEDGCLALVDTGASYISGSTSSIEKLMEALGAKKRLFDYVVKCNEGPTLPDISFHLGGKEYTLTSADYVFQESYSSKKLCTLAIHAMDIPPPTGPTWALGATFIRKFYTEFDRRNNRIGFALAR
Procedure: Renin (see E. Haas et al. Circulation Research, Vol. 19, p. 739, 1966 and Vol. 31, p. 65, 1972) was incubated in Angiotensinogen at 37° C. for 2 to 6 hours. Similarly, renin was incubated under the same conditions in the presence of 0.313 to 2.5 mg/ml. of each of the test compounds listed above. The amount of Angiotensin I was measured by radioimmunoassay (RIA) (E. Haber et al., J. Clin. Endocrinol., Vol. 29, p. 1349, 1969), and made the renin activity.
(§1) The results are shown in Table 1 (the rate of inhibiting the formation of Angiotensin I, as determined by Method I, when the plasma was incubated at 37° C. for 2, 4 and 6 hours respectively), and Table 2 (the rate of inhibiting the formation of Angiotensin I when the plasma was incubated at 37° C. for 4 hours, with the compound concentration of 1.25 mg/ml.)

High renin plasma = target: T2, High renin plasma (Canis lupus familiaris, UniProt Q6DYE7); assay: Renin-inhibitory activity, Method II (high renin plasma of dog, inhibition of Angiotensin I formation); format: biochemical; conditions: Table 2; 37°C, 4 hours, 1.25 mg/ml; read-out: Rate of inhibiting the formation of Angiotensin I determined by Method II
T2 construct: High renin plasma prepared by constriction of the renal artery of a dog anesthetized with Nembutal; from tissue; host or cells: plasma of a dog with constricted renal artery
T2 sequence (Q6DYE7 66-403): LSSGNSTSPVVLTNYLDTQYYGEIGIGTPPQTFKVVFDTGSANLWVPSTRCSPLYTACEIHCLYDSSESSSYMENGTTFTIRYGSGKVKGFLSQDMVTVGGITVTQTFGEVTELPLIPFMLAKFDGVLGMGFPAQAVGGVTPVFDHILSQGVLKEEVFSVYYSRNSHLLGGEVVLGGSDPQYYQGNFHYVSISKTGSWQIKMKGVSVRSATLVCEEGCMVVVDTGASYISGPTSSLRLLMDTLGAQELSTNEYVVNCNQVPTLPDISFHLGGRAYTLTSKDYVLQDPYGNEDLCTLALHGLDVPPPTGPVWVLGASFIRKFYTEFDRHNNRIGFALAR
Procedure: High renin plasma prepared by constriction of the renal artery of a dog anesthetized with Nembutal (the plasma which when incubated at 37°40 C. for 6 hours, yields 30 to […]. of Angiotensin I) was incubated at 37° C. for 2 to 6 hours in the same way as in Method I, and also under the same conditions in the presence of 1.25 mg/ml. of each of the test compounds.
as §1

renal hypertensive rats = assay: Antihypertensive activity in rats, p.o. (Table 4); format: in vivo, rat; conditions: 100 mg/kg/day p.o.
Procedure: An aqueous solution or suspension in peanut oil of each test compound as administered intramuscularly (i.m.) or orally (p.o.) at a dose of 30 to 100 mg/kg (body weight)/day once every morning over the period of 6 to 7 days.
The blood pressure of each rat was measured daily before and 5 hours after each administration. Furthermore, the blood pressure was measured every morning after drug withdrawal over a period of 3 to 6 days.
Test compounds (1)-(4) decreased the blood pressure of renal hypertensive rats with a dose of 30 mg/kg/day i.m.. […] The antihypertensive rats with a dose of 100 mg/kg/day p.o..

[1] = 1st day, 0 h (immediately before administration)
[2] = 1st day, 5 hours after administration
[3] = 2nd day, 0 h (immediately before administration)
[4] = 2nd day, 5 hours after administration
[5] = 3rd day, 0 h (immediately before administration)
[6] = 3rd day, 5 hours after administration
[7] = 4th day, 0 h (immediately before administration)
[8] = 4th day, 5 hours after administration
[9] = 5th day, 0 h (immediately before administration)
[10] = 5th day, 5 hours after administration
[11] = 6th day, 0 h (immediately before administration)
[12] = 6th day, 5 hours after administration
[13] = 7th day, 0 h (immediately before administration)
[14] = 7th day, 5 hours after administration

| SMILES | inhibition at 1250 µg/mL (Renin) [%] | inhibition at 1250 µg/mL (High renin plasma) [%] | Changes of blood pressure after drug withdrawal (renal hypertensive rats; 1st day after withdrawal) [mmHg] | Changes of blood pressure (renal hypertensive rats; [1]) [mmHg] | Changes of blood pressure (renal hypertensive rats; [2]) | Changes of blood pressure after drug withdrawal (renal hypertensive rats; 2nd day after withdrawal) [mmHg] | Changes of blood pressure (renal hypertensive rats; [3]) | Changes of blood pressure (renal hypertensive rats; [4]) [mmHg] | Changes of blood pressure after drug withdrawal (renal hypertensive rats; 3rd day after withdrawal) [mmHg] | Changes of blood pressure (renal hypertensive rats; [5]) [mmHg] | Changes of blood pressure (renal hypertensive rats; [6]) [mmHg] | Changes of blood pressure after drug withdrawal (renal hypertensive rats; 4th day after withdrawal) | Changes of blood pressure (renal hypertensive rats; [7]) [mmHg] | Changes of blood pressure (renal hypertensive rats; [8]) [mmHg] | Changes of blood pressure after drug withdrawal (renal hypertensive rats; 5th day after withdrawal) | Changes of blood pressure (renal hypertensive rats; [9]) [mmHg] | Changes of blood pressure (renal hypertensive rats; [10]) [mmHg] | Changes of blood pressure after drug withdrawal (renal hypertensive rats; 6th day after withdrawal) | Changes of blood pressure (renal hypertensive rats; [11]) [mmHg] | Changes of blood pressure (renal hypertensive rats; [12]) [mmHg] | other results |
| --- | --- | --- | --- | --- | --- | --- | --- | --- | --- | --- | --- | --- | --- | --- | --- | --- | --- | --- | --- | --- | --- |
| NCCOP(=O)(O)OCCCNC(=O)COc1ccc(Oc2ccc(Cl)cc2)cc1 [(7), 3-[4-(4'-chlorophenoxy)phenoxyacetylamino]propylphosphoryl ethanolamine] | 64 | 52 | -19 | 0 | -6 mmHg | -11 | -3 mmHg | -10 | -5 | -3 | -18 | -5 mmHg | -10 | -19 | -3 mmHg | -10 | -21 | -1 mmHg | -11 | -25 | Changes of blood pressure (renal hypertensive rats; [13]): -18 mmHg; Changes of blood pressure (renal hypertensive rats; [14]): -28 mmHg |
| CC(Oc1ccc(Oc2ccc(Cl)cc2)cc1)C(=O)NCCCOP(=O)(O)OCCN (stereo not drawn) [(8), 3-{α-[4-(4'-chlorophenoxy)phenoxy]propionylamino} propylphosphoryl ethanolamine] | 67 | 51 | -22 | 0 | +4 mmHg | -12 | +5 mmHg | -1 | -5 | -6 | -13 | +2 mmHg | -10 | -16 | +1 mmHg | -10 | -16 | +1 mmHg | -9 | -23 | Changes of blood pressure (renal hypertensive rats; [13]): -13 mmHg; Changes of blood pressure (renal hypertensive rats; [14]): -25 mmHg |
